# Like-named read-outs stand apart in the source and are kept apart here. Square brackets hold non-standard residues; d marks the D form. Peptide text beside a SMILES is read from it. * marks the point of attachment. Hyp = O=C(O)[C@@H]1C[C@@H](O)CN1; X19 = CCCCCCNC(=O)C*
# Molecular target: T1, bradykinin receptor of the B2 class (rat uterus) (Rattus norvegicus, UniProt P25023)
# T1 construct: concentration effect curves to bradykinin (BK) on rat uterus in vitro; from tissue; host or cells: rat uterus
# T1 sequence (P25023 1-396): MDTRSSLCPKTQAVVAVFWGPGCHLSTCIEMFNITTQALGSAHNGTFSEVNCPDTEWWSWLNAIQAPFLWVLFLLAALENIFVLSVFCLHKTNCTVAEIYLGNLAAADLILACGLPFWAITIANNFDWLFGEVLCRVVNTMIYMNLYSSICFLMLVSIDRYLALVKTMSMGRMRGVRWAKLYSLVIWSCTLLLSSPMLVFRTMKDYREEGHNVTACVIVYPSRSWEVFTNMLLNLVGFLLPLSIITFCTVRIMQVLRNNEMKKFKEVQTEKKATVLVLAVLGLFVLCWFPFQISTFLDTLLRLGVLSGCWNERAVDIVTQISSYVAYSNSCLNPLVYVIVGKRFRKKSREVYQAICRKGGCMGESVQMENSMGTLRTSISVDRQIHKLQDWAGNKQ
# Test: Rat uterus (RU) in vitro, antagonism of bradykinin
# Settings: for % RECOVERY: rat uterus
# Protocol: Thus in vitro studies were performed on standard assay systems, namely, guinea-pig ileum (GPI), rat uterus (RU) and rabbit jugular vein (RJV). […] The PA2 can be defined as the negative logarithm of the molar concentration of the antagonist in the presence of which the potency of the agonist is reduced two-fold, i.e. twice the amount of agonist is required to produce a given response in the presence of, than in the absence of, the antagonist. A high potency of antagonism is indicated by a high PA2 value, i.e., a low concentration of antagonist is effective.
# The percentage recovery (% Rec) was also determined for compounds with respect to each assay.
# With respect to duration of activity, it is noted that after exposure to the highest concentration of antagonist, each tissue was washed extensively and then assessed for recovery from the antagonist effect.
# Potency in the rat uterus assay was assessed as described above and PA2 values determined.
# [1] = Table D, effect of linker length, read-out: pA2 (UTERUS) (converted)
compound,measurement,setting,value
"CC(C)C[C@H](NC(=O)[C@@H](Cc1ccccc1)NC(=O)[C@H](CSC1CC(=O)N(CCN2C(=O)CC(SC[C@H](NC(=O)[C@H](Cc3ccccc3)NC(=O)CNC(=O)[C@@H]3C[C@@H](O)CN3C(=O)[C@@H]3CCCN3C(=O)[C@H](CCCNC(=N)N)NC(=O)[C@H](N)CCCNC(=N)N)C(=O)N[C@H](Cc3ccccc3)C(=O)N[C@@H](CC(C)C)C(=O)N[C@@H](CCCNC(=N)N)C(=O)O)C2=O)C1=O)NC(=O)[C@H](Cc1ccccc1)NC(=O)CNC(=O)[C@@H]1C[C@@H](O)CN1C(=O)[C@@H]1CCCN1C(=O)[C@H](CCCNC(=N)N)NC(=O)[C@H](N)CCCNC(=N)N)C(=O)N[C@@H](CCCNC(=N)N)C(=O)O (stereo partly drawn) [CP-0162] (HELM PEPTIDE1{[dR].R.P.[Hyp].G.F.C.[dF].L.R}|PEPTIDE2{[dR].R.P.[Hyp].G.F.C.[dF].L.R}|CHEM1{[O=C1CC([*:1])C(=O)N1CCN1C(=O)CC([*:2])C1=O]}$PEPTIDE1,CHEM1,7:R3-1:R1|PEPTIDE2,CHEM1,7:R3-1:R2$$$V2.0)",% REC (40 MIN),Table D,90%
same,Kb,[1],5.01 nM
"CC(C)C[C@H](NC(=O)[C@@H](Cc1ccccc1)NC(=O)[C@H](CSC1CC(=O)N(CCCCCCCCCCCCN2C(=O)CC(SC[C@H](NC(=O)[C@H](Cc3ccccc3)NC(=O)CNC(=O)[C@@H]3C[C@@H](O)CN3C(=O)[C@@H]3CCCN3C(=O)[C@H](CCCNC(=N)N)NC(=O)[C@H](N)CCCNC(=N)N)C(=O)N[C@H](Cc3ccccc3)C(=O)N[C@@H](CC(C)C)C(=O)N[C@@H](CCCNC(=N)N)C(=O)O)C2=O)C1=O)NC(=O)[C@H](Cc1ccccc1)NC(=O)CNC(=O)[C@@H]1C[C@@H](O)CN1C(=O)[C@@H]1CCCN1C(=O)[C@H](CCCNC(=N)N)NC(=O)[C@H](N)CCCNC(=N)N)C(=O)N[C@@H](CCCNC(=N)N)C(=O)O (stereo partly drawn) [CP-0166] (HELM PEPTIDE1{[dR].R.P.[Hyp].G.F.C.[dF].L.R}|PEPTIDE2{[dR].R.P.[Hyp].G.F.C.[dF].L.R}|CHEM1{[O=C1CC([*:1])C(=O)N1CCCCCCCCCCCCN1C(=O)CC([*:2])C1=O]}$PEPTIDE1,CHEM1,7:R3-1:R1|PEPTIDE2,CHEM1,7:R3-1:R2$$$V2.0)",% REC (40 MIN),Table D,0%
same,Kb,[1],6.31 nM
"CC(C)C[C@H](NC(=O)[C@@H](Cc1ccccc1)NC(=O)[C@H](CSC1CC(=O)N(CCCN2C(=O)CC(SC[C@H](NC(=O)[C@H](Cc3ccccc3)NC(=O)CNC(=O)[C@@H]3C[C@@H](O)CN3C(=O)[C@@H]3CCCN3C(=O)[C@H](CCCNC(=N)N)NC(=O)[C@H](N)CCCNC(=N)N)C(=O)N[C@H](Cc3ccccc3)C(=O)N[C@@H](CC(C)C)C(=O)N[C@@H](CCCNC(=N)N)C(=O)O)C2=O)C1=O)NC(=O)[C@H](Cc1ccccc1)NC(=O)CNC(=O)[C@@H]1C[C@@H](O)CN1C(=O)[C@@H]1CCCN1C(=O)[C@H](CCCNC(=N)N)NC(=O)[C@H](N)CCCNC(=N)N)C(=O)N[C@@H](CCCNC(=N)N)C(=O)O (stereo partly drawn) [CP-0172] (HELM PEPTIDE1{[dR].R.P.[Hyp].G.F.C.[dF].L.R}|PEPTIDE2{[dR].R.P.[Hyp].G.F.C.[dF].L.R}|CHEM1{[O=C1CC([*:1])C(=O)N1CCCN1C(=O)CC([*:2])C1=O]}$PEPTIDE1,CHEM1,7:R3-1:R1|PEPTIDE2,CHEM1,7:R3-1:R2$$$V2.0)",% REC (40 MIN),Table D,90%
same,Kb,[1],2.51 nM
"N=C(N)NCCC[C@@H](N)C(=O)N[C@@H](CCCNC(=N)N)C(=O)N1CCC[C@H]1C(=O)N1C[C@H](O)C[C@H]1C(=O)NCC(=O)N[C@@H](Cc1ccccc1)C(=O)N[C@@H](CO)C(=O)N[C@H](Cc1ccccc1)C(=O)N[C@@H](Cc1ccccc1)C(=O)N[C@@H](CCCNC(=N)N)C(=O)O [CP-0181, DArg^0 -Arg^1 -Pro^2 -Hyp^3 -Gly^4 -Phe^5 -Ser^6 -DPhe^7 -Phe^8 -Arg^9, reference compound]",% RECOVERY,Table F,100%
same,Kb,"Table F, read-out: RAT UTERUS pA2 (converted)",100 nM
"CC(C)C[C@H](NC(=O)[C@@H](Cc1ccccc1)NC(=O)[C@H](CSC1CC(=O)N(CCCCN2C(=O)CC(SC[C@H](NC(=O)[C@H](Cc3ccccc3)NC(=O)CNC(=O)[C@@H]3C[C@@H](O)CN3C(=O)[C@@H]3CCCN3C(=O)[C@H](CCCNC(=N)N)NC(=O)[C@H](N)CCCNC(=N)N)C(=O)N[C@H](Cc3ccccc3)C(=O)N[C@@H](CC(C)C)C(=O)N[C@@H](CCCNC(=N)N)C(=O)O)C2=O)C1=O)NC(=O)[C@H](Cc1ccccc1)NC(=O)CNC(=O)[C@@H]1C[C@@H](O)CN1C(=O)[C@@H]1CCCN1C(=O)[C@H](CCCNC(=N)N)NC(=O)[C@H](N)CCCNC(=N)N)C(=O)N[C@@H](CCCNC(=N)N)C(=O)O (stereo partly drawn) [CP-0209] (HELM PEPTIDE1{[dR].R.P.[Hyp].G.F.C.[dF].L.R}|PEPTIDE2{[dR].R.P.[Hyp].G.F.C.[dF].L.R}|CHEM1{[O=C1CC([*:1])C(=O)N1CCCCN1C(=O)CC([*:2])C1=O]}$PEPTIDE1,CHEM1,7:R3-1:R1|PEPTIDE2,CHEM1,7:R3-1:R2$$$V2.0)",% REC (40 MIN),Table D,50%
same,Kb,[1],6.31 nM
"CC(C)C[C@H](NC(=O)[C@@H](Cc1ccccc1)NC(=O)[C@H](CSC1CC(=O)N(CCCCCCCCN2C(=O)CC(SC[C@H](NC(=O)[C@H](Cc3ccccc3)NC(=O)CNC(=O)[C@@H]3C[C@@H](O)CN3C(=O)[C@@H]3CCCN3C(=O)[C@H](CCCNC(=N)N)NC(=O)[C@H](N)CCCNC(=N)N)C(=O)N[C@H](Cc3ccccc3)C(=O)N[C@@H](CC(C)C)C(=O)N[C@@H](CCCNC(=N)N)C(=O)O)C2=O)C1=O)NC(=O)[C@H](Cc1ccccc1)NC(=O)CNC(=O)[C@@H]1C[C@@H](O)CN1C(=O)[C@@H]1CCCN1C(=O)[C@H](CCCNC(=N)N)NC(=O)[C@H](N)CCCNC(=N)N)C(=O)N[C@@H](CCCNC(=N)N)C(=O)O (stereo partly drawn) [CP-0211] (HELM PEPTIDE1{[dR].R.P.[Hyp].G.F.C.[dF].L.R}|PEPTIDE2{[dR].R.P.[Hyp].G.F.C.[dF].L.R}|CHEM1{[O=C1CC([*:1])C(=O)N1CCCCCCCCN1C(=O)CC([*:2])C1=O]}$PEPTIDE1,CHEM1,7:R3-1:R1|PEPTIDE2,CHEM1,7:R3-1:R2$$$V2.0)",% REC (40 MIN),Table D,25%
same,Kb,[1],3.98 nM
"CC(C)C[C@H](NC(=O)[C@@H](Cc1ccccc1)NC(=O)[C@H](CSC1CC(=O)N(CCCCCCCCCN2C(=O)CC(SC[C@H](NC(=O)[C@H](Cc3ccccc3)NC(=O)CNC(=O)[C@@H]3C[C@@H](O)CN3C(=O)[C@@H]3CCCN3C(=O)[C@H](CCCNC(=N)N)NC(=O)[C@H](N)CCCNC(=N)N)C(=O)N[C@H](Cc3ccccc3)C(=O)N[C@@H](CC(C)C)C(=O)N[C@@H](CCCNC(=N)N)C(=O)O)C2=O)C1=O)NC(=O)[C@H](Cc1ccccc1)NC(=O)CNC(=O)[C@@H]1C[C@@H](O)CN1C(=O)[C@@H]1CCCN1C(=O)[C@H](CCCNC(=N)N)NC(=O)[C@H](N)CCCNC(=N)N)C(=O)N[C@@H](CCCNC(=N)N)C(=O)O (stereo partly drawn) [CP-0229] (HELM PEPTIDE1{[dR].R.P.[Hyp].G.F.C.[dF].L.R}|PEPTIDE2{[dR].R.P.[Hyp].G.F.C.[dF].L.R}|CHEM1{[O=C1CC([*:1])C(=O)N1CCCCCCCCCN1C(=O)CC([*:2])C1=O]}$PEPTIDE1,CHEM1,7:R3-1:R1|PEPTIDE2,CHEM1,7:R3-1:R2$$$V2.0)",% REC (40 MIN),Table D,0-10%
same,Kb,[1],1 nM
"CC(C)C[C@H](NC(=O)[C@@H](Cc1ccccc1)NC(=O)[C@H](CSC1CC(=O)N(CCCCCCCCCCN2C(=O)CC(SC[C@H](NC(=O)[C@H](Cc3ccccc3)NC(=O)CNC(=O)[C@@H]3C[C@@H](O)CN3C(=O)[C@@H]3CCCN3C(=O)[C@H](CCCNC(=N)N)NC(=O)[C@H](N)CCCNC(=N)N)C(=O)N[C@H](Cc3ccccc3)C(=O)N[C@@H](CC(C)C)C(=O)N[C@@H](CCCNC(=N)N)C(=O)O)C2=O)C1=O)NC(=O)[C@H](Cc1ccccc1)NC(=O)CNC(=O)[C@@H]1C[C@@H](O)CN1C(=O)[C@@H]1CCCN1C(=O)[C@H](CCCNC(=N)N)NC(=O)[C@H](N)CCCNC(=N)N)C(=O)N[C@@H](CCCNC(=N)N)C(=O)O (stereo partly drawn) [CP-0230] (HELM PEPTIDE1{[dR].R.P.[Hyp].G.F.C.[dF].L.R}|PEPTIDE2{[dR].R.P.[Hyp].G.F.C.[dF].L.R}|CHEM1{[O=C1CC([*:1])C(=O)N1CCCCCCCCCCN1C(=O)CC([*:2])C1=O]}$PEPTIDE1,CHEM1,7:R3-1:R1|PEPTIDE2,CHEM1,7:R3-1:R2$$$V2.0)",% REC (40 MIN),Table D,0%
same,Kb,[1],3.98 nM
CCCCCCNC(=O)CSC[C@H](NC(=O)[C@H](Cc1ccccc1)NC(=O)CNC(=O)[C@@H]1C[C@@H](O)CN1C(=O)[C@@H]1CCCN1C(=O)[C@H](CCCNC(=N)N)NC(=O)[C@H](N)CCCNC(=N)N)C(=O)N[C@H](Cc1ccccc1)C(=O)N[C@@H](CC(C)C)C(=O)N[C@@H](CCCNC(=N)N)C(=O)O [CP-0266] (H-[dR]RP[Hyp]GFC(X19)[dF]LR-OH),Kb,"Table H, monomer modifications, read-out: RAT UTERUS pA2 (converted)",6.31 nM
same,% RECOVERY,Table H,70%

# Source: patent US5416191A, “Bradykinin antagonists” (Cortech, Inc., priority 1993, dated 1995)
